The values below come from patent US20100062969A1, “HYDROPHILIC POLYMER-CONJUGATED LIPIDS FOR PEPTIDE AND PROTEIN FOLDING DISORDERS” (priority 2006, published 2010).

Data set [1] is described as follows: Stability of VIP and VIP-SSM in human serum. As to conditions: buffer or solvent.
Procedure: Since VIP is highly susceptible to enzymatic hydrolysis in serum, we have also tested serum stability of SSM-VIP formulation in a surrogate in vitro system. Briefly, DSPE-PEG2000 (5 mM) was weighed and hydrated (10 mM HEPES buffer, pH 7.4). VIP (5 nmol) was added to preformed SSM and incubated for 2 h at 25° C. to form VIP-SSM. Formulation was then incubated in human serum (25, 50% v/v). Sample aliquots were removed and analyzed on 0, 1, 3, 5 and 7 days following storage at 37° C. These samples were analyzed for the % of intact VIP associated with SSM following separation of unbound VIP from SSM.
A short description of data set [2]: Circulating half life of VIP in vivo. As to conditions: read-out: Circulating t½ in vivo (converted).
Data set [3] is described as follows: α-Helicity of VIP by circular dichroism. In kind it is physicochemical. The method, then: (§1) • Lipid:peptide saturation ratio and number of peptide/micelle were determined via fluorescent spectroscopy where 10 μM of VIP was incubuated with varying concentration of SSM or SSMM to achieve lipid:peptide molar ratio ranging from 0 to 40. The data was then fitted into a simple, rectangular hyperbola curve using SigmaPlot® to determine lipid:peptide saturation ratio. The maximum number of peptide molecules that could interact with each micelle was calculated from the aggregation number of lipid monomers per micelle (˜90) for both SSM and SSMM (Ashok B, et al. J Pharm Sci 2004; 93: 2476-2487). • α-helicity was determined by CD using 20 μM of VIP in 5 mM of SSM or SSMM (lipid:VIP ratio of 250:1). The same samples were used for particle size measurement. • Fluorescent anisotropy was conducted using 100 μM of VIP in 4.5 mM of SSM or SSMM (lipid:VIP ratio of 45:1) which is close to the lipid:peptide saturation ratio. The measurements were done using Perkin Elmer luminescence spectrometer LS50B.
A general note: Circular dichroism is the unequal absorption of left and right circularly polarised light.

Data set [4] in a line: Fluorescent anisotropy of VIP. In kind it is physicochemical. As to conditions: 100 μM VIP, […] SSM or SSMM (lipid:VIP 45:1). The method, then:
as §1

Compound `CC[C@H](C)[C@H](NC(=O)[C@H](CO)NC(=O)[C@H](CC(N)=O)NC(=O)[C@H](CC(C)C)NC(=O)[C@H](Cc1ccc(O)cc1)NC(=O)[C@H](CCCCN)NC(=O)[C@H](CCCCN)NC(=O)[C@@H](NC(=O)[C@H](C)NC(=O)[C@H](CCSC)NC(=O)[C@H](CCC(N)=O)NC(=O)[C@H](CCCCN)NC(=O)[C@H](CCCNC(=N)N)NC(=O)[C@H](CC(C)C)NC(=O)[C@H](CCCNC(=N)N)NC(=O)[C@@H](NC(=O)[C@H](Cc1ccc(O)cc1)NC(=O)[C@H](CC(N)=O)NC(=O)[C@H](CC(=O)O)NC(=O)[C@@H](NC(=O)[C@H](Cc1ccccc1)NC(=O)[C@@H](NC(=O)[C@H](C)NC(=O)[C@H](CC(=O)O)NC(=O)[C@H](CO)NC(=O)[C@@H](N)Cc1c[nH]cn1)C(C)C)[C@@H](C)O)[C@@H](C)O)C(C)C)C(=O)N[C@@H](CC(C)C)C(=O)N[C@@H](CC(N)=O)C(N)=O` [VIP in saline, vasoactive intestinal peptide] came in with a metabolised at 24 h in data set [1] of about 65%. The half-life in data set [2] was 18 min. Moreover, the “% α-Helix of VIP” value in data set [3] is reported as 5 ± 1%. The compound also registered an Anisotropy in data set [4] of 0.052 ± 0.004.
